Among the data in patent US20260034123A1 (Cedilla Therapeutics, Inc., priority 2022, published 2026) are IC50 values, retold here.

In assay [1] the target is CDK2/Cyclin E1 (Homo sapiens, UniProt P24941). Nature of the assay: ADP-Glo Luminescent Kinase Assay (CDK2/E1-37C). Particulars: 0.18 nM CDK2/Cyclin E1, 100 μM ATP, Histone H1, 37° C.; read-out: ADPGLO (CDK2/E1-37C): IC50. It counts as biochemical. As for the experimental part: Inhibition of CDK2/Cyclin E1 activity by the presence of small molecules was evaluated using ADP-Glo Luminescent Kinase Assay (Promega). Activated CDK2/Cyclin E1 was incubated with its substrate Histone H1 (SignalChem H10-54N) in the kinase reaction buffer (100 μM ATP, 50 mM HEPES pH 7.5, 10 mM MgCl2, 1 mM EDTA, 2 mM DTT, 0.01% Brij35, 0.5 mg/mL BSA). Luminescence was recorded with an Envision plate reader (PerkinElmer).
Dose titrations of inhibitors in 100% DMSO were combined with 0.36 nM CDK2/Cyclin E1 in reaction buffer. The mixtures were incubated for 60 minutes at 37° C. before the addition of ATP and Histone H1 substrate to initiate the kinase reaction. The final conditions were 0.18 nM CDK2/Cyclin E1, 100 μM ATP, and […] Histone H1. The reactions were incubated at 37° C. for 90 minutes before being stopped with the addition of ADP-Glo reagent. This mixture was incubated at room temperature for 60 minutes before Kinase Detection Solution is added to generate luminescence. The stopped reactions were analyzed on an Envision plate reader. The conversion ratios were normalized to yield % activity, plotted against compound concentration, and fit to a four-parameter equation to determine the IC50 for each compound.

Assay [2] concerns Kuramochi cells RB-WT. Nature of the assay: IncuCyte Kuramochi cell proliferation assay, RB-WT. It counts as cell-based. Particulars: 72 hours, cell count. The method, then:
(§1) IncuCyte® assay was used to measure the effect of disclosed compounds on cell proliferation. Fluorescent microscopy images of cells were taken immediately after compound treatment and 72 hours later. Image analysis software was used to obtain cell counts as a function of compound concentration. Kuramochi cells labeled with mApple-H2B were seeded on 384-well assay-ready plates. Plates were placed in an IncuCyte® (Sartorius) and scanned at 0 and 72 hours. IncuCyte® software was used to count the number of fluorescent nuclei in each well. The fold change in cell count from 0 to 72 hours in wells treated with increasing compounds concentrations (10 pts, 1/2 log dilution, 20 µM top concentration) was normalized to DMSO control wells. The normalized cell counts were fit with dose response curves and a GI50 was calculated.

For assay [3], the system named is Kuramochi cells RB-KO. Nature of the assay: IncuCyte Kuramochi cell proliferation assay, RB-KO. It counts as cell-based. Particulars: 72 hours, cell count, batch mean. The method, then:
as §1

A value given as a limit tells only on which side of the number the result lay.

For `O=C(O)c1c(COC[C@@H]2CN(C(=O)c3cnn(Cc4ccc(Cl)cc4F)c3)CC23CN(C(=O)C2(C(F)(F)F)CC2)C3)cccc1C1CCC(C(F)(F)F)CC1` (stereo in doubt) [Compound I-71, 2-(((6-(1-(4-chloro-2-fluorobenzyl)-1H-pyrazole-4-carbonyl)-2-(1-(trifluoromethyl)cyclopropane-1-carbonyl)-2,6-diazaspiro[3.4]octan-8-yl)methoxy)methyl)-6-(4-(trifluoromethyl)cyclohexyl)benzoic acid], the IC50 was at most 0.5 µM in assay [1], above 10 µM in assay [2] and above 10 µM in assay [3].
`O=C(O)c1ccccc1-c1c(COC[C@@H]2CN(C(=O)c3cnn(Cc4ccc(F)cc4)c3)CC23CN(C(=O)C2(C(F)(F)F)CC2)C3)cccc1C1CCC(C(F)(F)F)CC1` (stereo in doubt) [Compound I-104, 2′-(((6-(1-(4-fluorobenzyl)-1H-pyrazole-4-carbonyl)-2-(1-(trifluoromethyl)cyclopropanecarbonyl)-2,6-diazaspiro[3.4]octan-8-yl)methoxy)methyl)-6′-(4-(trifluoromethyl)cyclohexyl)-[1,1′-biphenyl]-2-carboxylic acid]: the IC50 in assay [1] is at most 0.5 µM; in assay [2], 0.5 to 5 µM; in assay [3], 5 to 10 µM.
As for `O=C(O)c1ccccc1Cn1cc(C(=O)N2C[C@@H](COCc3cccc(C4CCC(C(F)(F)F)CC4)c3)C3(C2)CN(C(=O)C2(C(F)(F)F)CC2)C3)cn1` (stereo in doubt) [Compound I-113, 2-((4-(8-(((3-(4-(trifluoromethyl)cyclohexyl)benzyl)oxy)methyl)-2-(1-(trifluoromethyl)cyclopropane-1-carbonyl)-2,6-diazaspiro[3.4]octane-6-carbonyl)-1H-pyrazol-1-yl)methyl)benzoic acid], the IC50 in assay [1] was 0.5 to 5 µM; in assay [2] it was above 10 µM; in assay [3], above 10 µM.
As for `O=C(O)c1ccccc1Cn1cc(C(=O)N2C[C@@H](COCc3cccc(C4CCC(C(F)(F)F)CC4)c3F)C3(C2)CN(C(=O)C2(C(F)(F)F)CC2)C3)cn1` (stereo in doubt) [Compound I-115, 2-((4-(8-(((2-fluoro-3-(4-(trifluoromethyl)cyclohexyl)benzyl)oxy)methyl)-2-(1-(trifluoromethyl)cyclopropane-1-carbonyl)-2,6-diazaspiro[3.4]octane-6-carbonyl)-1H-pyrazol-1-yl)methyl)benzoic acid], the IC50 in assay [1] was at most 0.5 µM; in assay [2], above 10 µM; in assay [3], above 10 µM.
Take `O=C(O)c1ccc(C2CCN(C(=O)COCC3CN(C(=O)c4cnn(Cc5ccccc5)c4)CC34CN(C(=O)C3(C(F)(F)F)CC3)C4)CC2)c(OC2CCCCC2)c1` (centres unmarked) [Compound I-60, 4-(1-(2-((6-(1-benzyl-1H-pyrazole-4-carbonyl)-2-(1-(trifluoromethyl)cyclopropane-1-carbonyl)-2,6-diazaspiro[3.4]octan-8-yl)methoxy)acetyl)piperidin-4-yl)-3-(cyclohexyloxy)benzoic acid]: the IC50 in assay [1] and in assay [2] was above 10 µM throughout.
Consider `O=C(O)c1c(COCC2CN(c3cc(F)cc4ncsc34)CC23CN(C(=O)C2(C(F)(F)F)CC2)C3)cccc1C1CCC(C(F)(F)F)CC1` (centres unmarked) [Compound I-61, 2-(((6-(5-fluorobenzo[d]thiazol-7-yl)-2-(1-(trifluoromethyl)cyclopropane-1-carbonyl)-2,6-diazaspiro[3.4]octan-8-yl)methoxy)methyl)-6-(4-(trifluoromethyl)cyclohexyl)benzoic acid], for which the IC50 in assay [1] and in assay [2] was above 10 µM in each case.
Consider `O=C(O)C(=CC1CN(C(=O)c2cnn(Cc3ccc(C(F)(F)F)cc3)c2)CC12CN(C(=O)C1(C(F)(F)F)CC1)C2)Cc1cccc(-c2ccc(C(F)(F)F)cc2)n1` (centres unmarked) [Compound I-62, 3-(6-(1-(4-(Trifluoromethyl)benzyl)-1H-pyrazole-4-carbonyl)-2-(1-(trifluoromethyl)cyclopropane-1-carbonyl)-2,6-diazaspiro[3.4]octan-8-yl)-2-((6-(4-(trifluoromethyl)phenyl)pyridin-2-yl)methyl)acrylic acid], for which the IC50 in assay [1] and in assay [2] was above 10 µM in each case.
For `O=C(O)C(=CC1CN(C(=O)c2cnc(O)cn2)CC12CN(C(=O)C1(C(F)(F)F)CC1)C2)Cc1cccc(-c2ccc(C(F)(F)F)cc2)n1` (centres unmarked) [Compound I-63, 3-(6-(5-hydroxypyrazine-2-carbonyl)-2-(1-(trifluoromethyl)cyclopropane-1-carbonyl)-2,6-diazaspiro[3.4]octan-8-yl)-2-((6-(4-(trifluoromethyl)phenyl)pyridin-2-yl)methyl)acrylic acid], the IC50 in assay [1] and in assay [2] was above 10 µM each time.
`CS(=O)(=O)NC(=O)c1c(COC[C@@H]2CN(C(=O)c3cnn(Cc4ccc(C(F)(F)F)cc4)c3)CC23CN(C(=O)C2(C(F)(F)F)CC2)C3)cccc1C1CCC(C(F)(F)F)CC1` (some centres unmarked) [Compound I-68]: the IC50 is 0.5 to 5 µM in assay [1], above 10 µM in assay [2] and above 10 µM in assay [3].
For `O=C(c1cnn(Cc2ccc(C(F)(F)F)cc2)c1)N1C[C@@H](COCc2cccc(C3CCC(C(F)(F)F)CC3)c2-c2nn[nH]n2)C2(C1)CN(C(=O)C1(C(F)(F)F)CC1)C2` (some centres unmarked) [Compound I-69], the IC50 was at most 0.5 µM in assay [1], above 10 µM in assay [2] and above 10 µM in assay [3].
As for `O=C(O)c1c(COC[C@@H]2CN(C(=O)c3cnn(Cc4ccc(C(F)(F)F)cc4)c3)CC23CN(C(=O)C2(C(F)(F)F)CC2)C3)cccc1N1CCC(C(F)(F)F)CC1` [Compound I-72], the IC50 in assay [1] is 0.5 to 5 µM; in assay [2], above 10 µM; in assay [3], above 10 µM.
With `O=C(O)c1c(COC[C@@H]2CN(C(=O)c3c[nH]nc3Cc3ccccc3)CC23CN(C(=O)C2(C(F)(F)F)CC2)C3)cccc1C1CCC(C(F)(F)F)CC1` (some centres unmarked) [Compound I-73], the IC50 was 0.5 to 5 µM in assay [1], above 10 µM in assay [2] and above 10 µM in assay [3].
In the case of `O=C(O)c1c(COC[C@@H]2CN(C(=O)c3cnn(Cc4ccc(F)cc4C(F)(F)F)c3)CC23CN(C(=O)C2(C(F)(F)F)CC2)C3)cccc1C1CCC(C(F)(F)F)CC1` (some centres unmarked) [Compound I-76], the IC50 in assay [1] is at most 0.5 µM; in assay [2], 5 to 10 µM; in assay [3], above 10 µM.
The matching figures for `C[C@@H](c1ccc(F)cc1)n1cc(C(=O)N2CC(COCc3cccc(C4CCC(C(F)(F)F)CC4)c3C(=O)O)C3(C2)CN(C(=O)C2(C(F)(F)F)CC2)C3)cn1` (some centres unmarked) [Compound I-77]: 0.5 to 5 µM, above 10 µM and above 10 µM.
As to `C[C@H](c1ccc(F)cc1)n1cc(C(=O)N2CC(COCc3cccc(C4CCC(C(F)(F)F)CC4)c3C(=O)O)C3(C2)CN(C(=O)C2(C(F)(F)F)CC2)C3)cn1` (some centres unmarked) [Compound I-78], the IC50 is 0.5 to 5 µM in assay [1], above 10 µM in assay [2] and above 10 µM in assay [3].
Regarding `CC1(C)C[C@@H]1C(=O)N1CC2(CN(C(=O)c3cnn(Cc4ccc(F)cc4)c3)CC2COCc2cccc(C3CCC(C(F)(F)F)CC3)c2C(=O)NS(C)(=O)=O)C1` (stereo partly drawn) [Compound I-86, 2-(((2-((S)-2,2-dimethylcyclopropane-1-carbonyl)-6-(1-(4-fluorobenzyl)-1H-pyrazole-4-carbonyl)-2,6-diazaspiro[3.4]octan-8-yl)methoxy)methyl)-N-(methylsulfonyl)-6-(4-(trifluoromethyl)cyclohexyl)benzamide], the IC50 in assay [1] is at most 0.5 µM; in assay [2] it was 0.5 to 5 µM; in assay [3], 0.5 to 5 µM.
